Measured values: patent US12692253B2, “Antimicrobial compounds and methods” (Curza Global, LLC, priority 2019, dated 2026)
Like-named read-outs stand apart in the source and are kept apart here.

Experiments:
[1] = test system: E. coli S30 extract (bacterial protein synthesis); assay: E. coli S30 extract coupled transcription-translation luciferase assay (inhibition of bacterial protein synthesis); format: biochemical; settings: read-out: S30 IC50 (μM/% inhib.)
Outline: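 Luciferase luminescence quantified inhibition of protein synthesis relative to water controls, with no-DNA reactions giving background. Compounds in 2-fold serial dilution (8 levels) were incubated 1 hour at 37 °C with E. coli S30 extract, amino acids and pBESTluc plasmid, then chilled to stop.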

[2] = biological target: Rabbit Reticulocyte Lysate (eukaryotic protein synthesis); assay: Rabbit reticulocyte lysate luciferase assay (inhibition of eukaryotic protein synthesis); format: biochemical; settings: read-out: Rabbit reticulocyte IC50 (μM/% inhib.)
Outline: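 Percent inhibition calculated against water-only controls from luminescence; background set by lysate lacking RNA. Compounds, 8-point 2-fold titration, incubated 90 minutes at 30° C with nuclease-treated rabbit reticulocyte lysate programmed with luciferase control RNA plus complete amino acids.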

A. baumannn (Ab) = assay: Broth microdilution minimum inhibitory concentration (MIC), CLSI; format: cell-based; settings: read-out: Ab + bicarb MIC
Outline: (§1)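 Bacteria grown at 35±2 °C to 0.5 McFarland turbidity were added at 5×10^4 CFU/well to triplicate two-fold compound series (8 dilutions). Media were cation-adjusted Mueller-Hinton broth alone or with sodium bicarbonate (6.25 or 25 mM final) or heat-inactivated human serum (0–50%), per modified CLSI method.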

E. faecalis (Ef) = assay: as above; format: cell-based; settings: Enterococcus faecalis, read-out: Ef + bicarb MIC
Outline: as §1

S. aureus (Sa) = assay: as above; format: cell-based; settings: Staphylococcus aureus, read-out: Sa + bicarb MIC
Outline: as §1

P. aeruginosa (Pa) = assay: as above; format: cell-based; settings: Pseudomonas aeruginosa, read-out: Pa MIC + bicarb
Outline: as §1

E. coli (Ec) = assay: as above; format: cell-based; settings: Escherichia coli, read-out: E. coli + bicarb MIC
Outline: as §1

[3] = A. baumannn, growth medium with sodium bicarbonate
[4] = growth medium with sodium bicarbonate
[5] = class by IC50 or % inhibition @ 1 μM
[6] = growth medium supplemented with sodium bicarbonate

Work on CC(C)[C@@H](N)C(=O)N1CCN(C(=O)Nc2ccn(-c3ccc(CC(C)N4C[C@@H]5[C@@H](CN)[C@@H]5C4)cc3)c(=O)n2)CC1 (stereo partly shown) [Compound 230] yielded an IC50 ([1]; % inhibition @ 1 μM) of at least 1 µM, an IC50 ([2]; % inhibition @ 1 μM) of at least 1 µM and an MIC (A. baumannn (Ab); [3]) of over 32 µg/mL. It also gave an MIC (E. faecalis (Ef); [4]) of over 32 µg/mL, an MIC (S. aureus (Sa); [4]) of 8 to 32 µg/mL and an MIC (P. aeruginosa (Pa); [4]) of over 32 µg/mL. It also gave an MIC (E. coli (Ec); [4]) of under 8 µg/mL.

With CC(C)(N)C(=O)N1CCN(C(=O)Nc2ccn(-c3ccc(CN4CCC5(CC4)CC(N)C5)cc3)c(=O)n2)CC1 [Compound 33] the IC50 [1, 5] was under 0.5 µM, the IC50 [2, 5] was at least 1 µM and the MIC (A. baumannn (Ab); Acinetobacter baumannii) was 8 to 32 µg/mL. The MIC (E. faecalis (Ef); [6]) was under 8 µg/mL, the MIC (S. aureus (Sa); [6]) was under 8 µg/mL and the MIC (P. aeruginosa (Pa); [6]) was 8 to 32 µg/mL. It also gave an MIC (E. coli (Ec); [6]) of under 8 µg/mL.

With N[C@@H]1[C@H]2CN(Cc3ccc(-n4ccc(NC(=O)N5CCC6(CC5)CNC6)nc4=O)cc3)C[C@@H]12 [Compound 61] the IC50 [1, 5] was at least 1 µM, the IC50 [2, 5] was at least 1 µM and the MIC (A. baumannn (Ab); Acinetobacter baumannii) was over 32 µg/mL. The MIC (E. faecalis (Ef); [6]) was over 32 µg/mL, the MIC (S. aureus (Sa); [6]) was over 32 µg/mL and the MIC (P. aeruginosa (Pa); [6]) was over 32 µg/mL. The MIC (E. coli (Ec); [6]) was 8 to 32 µg/mL.

CC(C)(N)C(=O)N1CCN(C(=O)Nc2ccn(-c3ccc(CN4C[C@@H]5[C@H](N)[C@@H]5C4)cc3)c(=O)n2)CC1 [Compound 14] showed an IC50 [1, 5] of under 0.5 µM, an IC50 [2, 5] of at least 1 µM and an MIC (A. baumannn (Ab); Acinetobacter baumannii) of over 32 µg/mL. For the same compound, the MIC (E. faecalis (Ef); [6]) was under 8 µg/mL, the MIC (S. aureus (Sa); [6]) was under 8 µg/mL and the MIC (P. aeruginosa (Pa); [6]) was over 32 µg/mL. The MIC (E. coli (Ec); [6]) was under 8 µg/mL.

Compound Cc1cc(-n2ccc(NC(=O)N3CCN(C(=O)[C@@](C)(N)CO)CC3)nc2=O)ccc1CCN1CC2CC2(CN)C1 (stereo partly shown) [Compound 128] has an IC50 [1, 5] of under 0.5 µM, an IC50 [2, 5] of at least 1 µM and an MIC (A. baumannn (Ab); Acinetobacter baumannii) of over 32 µg/mL. It also gave an MIC (E. faecalis (Ef); [6]) of 8 to 32 µg/mL, an MIC (S. aureus (Sa); [6]) of under 8 µg/mL and an MIC (P. aeruginosa (Pa); [6]) of over 32 µg/mL. It also gave an MIC (E. coli (Ec); [6]) of under 8 µg/mL.

Work on CC(C)(N)C1CN(C(=O)Nc2ccn(-c3ccc(CN4C[C@@H]5[C@@H](N)[C@@H]5C4)cc3)c(=O)n2)CCO1 (stereo partly shown) [Compound 56] yielded an IC50 [1, 5] of at least 1 µM, an IC50 [2, 5] of at least 1 µM and an MIC (A. baumannn (Ab); Acinetobacter baumannii) of over 32 µg/mL. The MIC (E. faecalis (Ef); [6]) was over 32 µg/mL, the MIC (S. aureus (Sa); [6]) was over 32 µg/mL and the MIC (P. aeruginosa (Pa); [6]) was over 32 µg/mL. For the same compound, the MIC (E. coli (Ec); [6]) was 8 to 32 µg/mL.

In the case of Cc1cc(-n2ccc(NC(=O)N3CCN(C(=O)[C@@](C)(N)CO)CC3)nc2=O)ccc1CCN1C[C@@H]2[C@@H](CN)[C@@H]2C1 [Compound 129], the IC50 [1, 5] is reported as under 0.5 µM, the IC50 [2, 5] is reported as at least 1 µM and the MIC (A. baumannn (Ab); Acinetobacter baumannii) is reported as over 32 µg/mL. The MIC (E. faecalis (Ef); [6]) was 8 to 32 µg/mL, the MIC (S. aureus (Sa); [6]) was under 8 µg/mL and the MIC (P. aeruginosa (Pa); [6]) was 8 to 32 µg/mL. For the same compound, the MIC (E. coli (Ec); [6]) was under 8 µg/mL.

For CC(C)(N)C(=O)N1CCN(C(=O)Nc2ccn(-c3cccc(CCN4C[C@@H]5[C@@H](CN)[C@@H]5C4)c3)c(=O)n2)CC1 [Compound 143], the IC50 [1, 5] was 0.5 to 1 µM, the IC50 [2, 5] was at least 1 µM and the MIC (A. baumannn (Ab); Acinetobacter baumannii) was over 32 µg/mL. For the same compound, the MIC (E. faecalis (Ef); [6]) was 8 to 32 µg/mL, the MIC (S. aureus (Sa); [6]) was 8 to 32 µg/mL and the MIC (P. aeruginosa (Pa); [6]) was over 32 µg/mL. It also gave an MIC (E. coli (Ec); [6]) of under 8 µg/mL.

CC(Cc1ccc(-n2ccc(NC(=O)N3CCN(C(=O)C(C)(C)N)CC3)nc2=O)cc1C(F)(F)F)N1C[C@@H]2[C@@H](CN)[C@@H]2C1 (stereo partly shown) [Compound 208] gave an IC50 ([1]; % inhibition @ 1 μM) of under 0.5 µM, an IC50 ([2]; % inhibition @ 1 μM) of at least 1 µM and an MIC (A. baumannn (Ab); [3]) of 8 to 32 µg/mL. The MIC (E. faecalis (Ef); [4]) was under 8 µg/mL, the MIC (S. aureus (Sa); [4]) was under 8 µg/mL and the MIC (P. aeruginosa (Pa); [4]) was over 32 µg/mL. The MIC (E. coli (Ec); [4]) was under 8 µg/mL.

In the case of N[C@@H]1[C@H]2CN(Cc3ccc(-n4ccc(NC(=O)N5C[C@@H]6[C@@H](N)[C@@H]6C5)nc4=O)cc3)C[C@@H]12 [Compound 249], the IC50 ([1]; % inhibition @ 1 μM) is reported as at least 1 µM, the IC50 ([2]; % inhibition @ 1 μM) is reported as at least 1 µM and the MIC (A. baumannn (Ab); [3]) is reported as over 32 µg/mL. It also gave an MIC (E. faecalis (Ef); [4]) of over 32 µg/mL, an MIC (S. aureus (Sa); [4]) of over 32 µg/mL and an MIC (P. aeruginosa (Pa); [4]) of over 32 µg/mL. The MIC (E. coli (Ec); [4]) was 8 to 32 µg/mL.

CC(C)(N)C(=O)N1CCN(C(=O)Nc2ccn(-c3ccc(CCN4CCC5(CCNC5)C4)cc3)c(=O)n2)CC1 (stereo not shown) [Compound 161] showed an IC50 [1, 5] of under 0.5 µM, an IC50 [2, 5] of at least 1 µM and an MIC (A. baumannn (Ab); Acinetobacter baumannii) of over 32 µg/mL. For the same compound, the MIC (E. faecalis (Ef); [6]) was 8 to 32 µg/mL, the MIC (S. aureus (Sa); [6]) was under 8 µg/mL and the MIC (P. aeruginosa (Pa); [6]) was over 32 µg/mL. For the same compound, the MIC (E. coli (Ec); [6]) was under 8 µg/mL.

CN(Cc1ccc(-n2ccc(NC(=O)N3CCN(C(=O)C(C)(C)N)CC3)nc2=O)cc1)C12CCC(N)(CC1)CC2 [Compound 165] gave an IC50 ([1]; % inhibition @ 1 μM) of 0.5 to 1 µM, an IC50 ([2]; % inhibition @ 1 μM) of at least 1 µM and an MIC (A. baumannn (Ab); [3]) of 8 to 32 µg/mL. For the same compound, the MIC (E. faecalis (Ef); [4]) was under 8 µg/mL, the MIC (S. aureus (Sa); [4]) was under 8 µg/mL and the MIC (P. aeruginosa (Pa); [4]) was over 32 µg/mL. For the same compound, the MIC (E. coli (Ec); [4]) was under 8 µg/mL.

CNC[C@@H]1[C@H]2CN(C(C)Cc3ccc(-n4ccc(NC(=O)N5CCN(C(=O)C(C)(C)N)CC5)nc4=O)cc3)C[C@@H]12 (stereo partly shown) [Compound 138] was tested, and the IC50 [1, 5] was 0.5 to 1 µM, the IC50 [2, 5] was at least 1 µM and the MIC (A. baumannn (Ab); Acinetobacter baumannii) was over 32 µg/mL. It also gave an MIC (E. faecalis (Ef); [6]) of 8 to 32 µg/mL, an MIC (S. aureus (Sa); [6]) of under 8 µg/mL and an MIC (P. aeruginosa (Pa); [6]) of over 32 µg/mL. The MIC (E. coli (Ec); [6]) was under 8 µg/mL.
